Test results published in US8399480B2, “Hydroxymethyl pyrrolidines as beta 3 adrenergic receptor agonists” (Merck Sharp & Dohme Corp., priority 2008, dated 2013).
Like-named read-outs stand apart in the source and are kept apart here.

Target: T1, human β3 adrenergic receptor (Homo sapiens, UniProt P13945)
T1 construct: expressed in transfected cells; host or cells: Chinese hamster ovary (CHO) cells, stably transfected
Experiment: Functional assay: cAMP production (LANCE TR-FRET) in CHO cells stably transfected with cloned β3 adrenergic receptor
Format: cell-based
Method: Chinese hamster ovary (CHO) cells, stably transfected with the cloned β-adrenergic receptor (β1, β2 or β3) are harvested after 3 days of subculturing. Harvesting of cells is done with Enzyme-free Dissociation Media (Specialty Media). Cells are then counted and resuspended in assay buffer (Hank's Balanced salt solution supplemented with 5 mM HEPES, 0.1% BSA) containing a phosphodiesterase inhibitor (IBMX, 0.6 mM). The reaction is initiated by mixing 6,000 cells in 6 μL with 6 μL Alexa Fluor labeled cAMP antibody (LANCE™ kit) which is then added to an assay well containing 12 μL of compound (diluted in assay buffer to 2× final concentration). The reaction proceeds for 30 min at room temperature and is terminated by the addition of 24 μL detection buffer (LANCE™ kit). The assay plate is then incubated for 1 h at room temperature and time-resolved fluorescence measured on a Perkin Elmer Envision reader or equivalent. The unknown cAMP level is determined by comparing fluorescence levels to a cAMP standard curve.
The non-selective, full agonist β-adrenergic ligand isoproterenol is used at all three receptors to determine maximal stimulation. […] Data are analyzed using Microsoft Excel and Graphpad Prism or an internally developed data analysis software package.

[1] = given as a range, cAMP, CHO cells, read-out: human β3 functional activity
[2] = Table 6, read-out: Human β3 Functional
[3] = Table 5, read-out: Human β3 Functional
[4] = human β3 functional activity, shown as ranges, Table 13, read-out: Human β3 Functional
[5] = Table 4, human β3 functional activity, read-out: Human β Binding
[6] = Table 7, β3AR-cAMP, read-out: Human β3 Functional
[7] = Table 10, β3AR-cAMP, read-out: Human β3 Functional

T1 sequence (P13945 whole entry): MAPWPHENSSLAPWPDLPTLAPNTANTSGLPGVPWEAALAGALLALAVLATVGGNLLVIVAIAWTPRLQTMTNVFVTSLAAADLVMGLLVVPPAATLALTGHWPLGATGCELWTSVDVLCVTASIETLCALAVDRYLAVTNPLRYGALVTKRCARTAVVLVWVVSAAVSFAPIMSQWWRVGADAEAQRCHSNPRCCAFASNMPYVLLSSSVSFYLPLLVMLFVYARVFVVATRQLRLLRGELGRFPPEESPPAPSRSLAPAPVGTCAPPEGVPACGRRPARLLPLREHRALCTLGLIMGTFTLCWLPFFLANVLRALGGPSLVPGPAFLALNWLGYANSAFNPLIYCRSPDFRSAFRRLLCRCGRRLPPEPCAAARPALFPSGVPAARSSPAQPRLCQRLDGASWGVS

EC50 [3] [µM]	EC50 [5] [µM]	Structure (SMILES)	further results
0.001 to 0.01	–	Cc1cc(C(C)C(=O)Nc2ccc(C[C@@H]3CC[C@H]([C@H](O)c4ccccc4)N3)cc2)[nH]n1 (single isomer, unassigned) [Example 185]	–
0.001 to 0.01	–	CC(C(=O)Nc1ccc(C[C@@H]2CC[C@H]([C@H](O)c3ccccc3)N2)cc1)c1cnccn1 (single isomer, unassigned) [Example 206]	–
0.001 to 0.01	–	CC(C(=O)Nc1ccc(C[C@@H]2CC[C@H]([C@H](O)c3ccccc3)N2)cc1)n1ccnn1 (single isomer, unassigned) [Example 183]	–
0.001 to 0.01	–	Cc1nnc2n1CCCC2C(=O)Nc1ccc(C[C@@H]2CC[C@H]([C@H](O)c3ccccc3)N2)cc1 (single isomer, unassigned) [Example 151]	–
< 0.001	–	CC(C(=O)Nc1ccc(C[C@@H]2CC[C@H]([C@H](O)c3ccccc3)N2)cc1)n1cccnc1=O (single isomer, unassigned) [Example 161]	–
0.011 to 0.1	–	CC(C(=O)Nc1ccc(C[C@@H]2CC[C@H]([C@H](O)c3ccccc3)N2)cc1)N1CCOC1=O (single isomer, unassigned) [Example 209]	–
0.011 to 0.1	–	O=C(Nc1ccc(C[C@@H]2CC[C@H]([C@H](O)c3ccccc3)N2)cc1)C1CCc2ncnn21 (single isomer, unassigned) [Example 128]	–
< 0.001	–	CC(C(=O)Nc1ccc(C[C@@H]2CC[C@H]([C@H](O)c3ccccc3)N2)cc1)n1cnc2ccccc2c1=O (single isomer, unassigned) [Example 167]	–
0.011 to 0.1	–	COC(=O)c1cnnn1C(C)C(=O)Nc1ccc(C[C@@H]2CC[C@H]([C@H](O)c3ccccc3)N2)cc1 (single isomer, unassigned) [Example 194]	–
1 to 3	–	O=C(Nc1ccc(C[C@@H]2CC[C@H]([C@H](O)c3ccccc3)N2)cc1)C1CCCn2ccnc21 (single isomer, unassigned) [Example 154]	–
0.001 to 0.01	–	CC(C(=O)Nc1ccc(C[C@@H]2CC[C@H]([C@H](O)c3ccccc3)N2)cc1)n1nncc1C(=O)O (single isomer, unassigned) [Example 197]	–
0.011 to 0.1	–	O=C(Nc1ccc(C[C@@H]2CC[C@H]([C@H](O)c3ccccc3)N2)cc1)C1CCCn2nnnc21 (single isomer, unassigned) [Example 153]	–
0.001 to 0.01	–	CC(C(=O)Nc1ccc(C[C@@H]2CC[C@H]([C@H](O)c3ccccc3)N2)cc1)n1cnnn1 (single isomer, unassigned) [Example 173]	–
< 0.001	–	CC(C(=O)Nc1ccc(C[C@@H]2CC[C@H]([C@H](O)c3ccccc3)N2)cc1)c1nccs1 (single isomer, unassigned) [Example 200]	–
0.001 to 0.01	–	CC(C(=O)Nc1ccc(C[C@@H]2CC[C@H]([C@H](O)c3ccccc3)N2)cc1)n1cncn1 (single isomer, unassigned) [Example 177]	–
0.001 to 0.01	–	COC(=O)c1cnnn1C(C)C(=O)Nc1ccc(C[C@@H]2CC[C@H]([C@H](O)c3ccccc3)N2)cc1 (single isomer, unassigned) [Example 195]	–

The next lines start with the molecule.

Structure (SMILES)	EC50 [3] [µM]	EC50 [5] [µM]	further results
Nc1nc(CC(=O)Nc2ccc(C[C@@H]3CC[C@H]([C@H](O)c4ccccc4)N3)cc2Br)cs1 [Example 312, 2-(2-Amino-1,3-thiazol-4-yl)-N-[2-bromo-4-({(2S,5R)-5-[(R)-hydroxy(phenyl)methyl]pyrrolidin-2-yl}methyl)phenyl]acetamide]	–	–	EC50 [1]: 0.011 to 0.1 µM
Cc1nc2c(s1)CCCC2C(=O)Nc1ccc(CC2CCC(C(O)c3ccccc3)N2)cc1 (single isomer, unassigned) [Example 232]	–	–	EC50 [2]: 1 to 3 µM
O=C(Nc1ccc(C[C@@H]2CC[C@H]([C@H](O)c3cccc(Cl)c3)N2)cc1)[C@@H]1CCc2scnc21 [Example 297]	–	–	EC50 [4]: < 0.001 µM
NC(=O)c1nn(CC(=O)Nc2ccc(C[C@@H]3CC[C@H]([C@H](O)c4ccccc4)N3)cc2)c(=O)c2ccccc12 [Example 54]	–	0.001 to 0.01	–
O=C(Nc1ccc(C[C@@H]2CC[C@H]([C@H](O)c3ccccc3)N2)cc1)C1CCCN1c1nc2ccccc2s1 (stereo partly drawn) [Example 40]	–	0.011 to 0.1	–
O=C(Cn1ncccc1=O)Nc1ccc(C[C@@H]2CC[C@H]([C@H](O)c3cccc(Cl)c3)N2)cc1 [Example 305]	–	–	EC50 [4]: 0.011 to 0.1 µM
O=C(Cn1cccnc1=O)Nc1ccc(C[C@@H]2CC[C@H]([C@H](O)c3ccccc3)N2)cc1 [Example 64]	–	0.001 to 0.01	–
O=C(Cn1cnnn1)Nc1ccc(C[C@@H]2CC[C@H]([C@H](O)c3ccccc3)N2)cc1 [Example 77]	–	0.011 to 0.1	–
Cn1cnc(S(=O)(=O)Nc2ccc(C[C@@H]3CC[C@H]([C@H](O)c4ccccc4)N3)cc2)c1 [Example 246]	–	–	EC50 [6]: 0.101 to 1 µM
O=C(Cn1ncc2ccccc21)Nc1ccc(C[C@@H]2CC[C@H]([C@H](O)c3ccccc3)N2)cc1 [Example 6]	–	0.001 to 0.01	–
Cc1nnc(CC(=O)Nc2ccc(C[C@@H]3CC[C@H]([C@H](O)c4cccc(F)c4)N3)cc2)[nH]1 [Example 280]	–	–	EC50 [7]: 0.001 to 0.01 µM
O=S(=O)(Nc1ccc(C[C@@H]2CC[C@H]([C@H](O)c3ccccc3)N2)cc1)c1cccc2ncccc12 [Example 238]	–	–	EC50 [6]: 0.101 to 1 µM
O=C(Cn1nnc2ccccc2c1=O)Nc1ccc(C[C@@H]2CC[C@H]([C@H](O)c3ccccc3)N2)cc1 [Example 59]	–	0.001 to 0.01	–
O=C(Nc1ccc(C[C@@H]2CC[C@H]([C@H](O)c3ccccc3)N2)cc1)C1CCCN1c1cccc(Br)c1 (stereo partly drawn) [Example 38]	–	0.001 to 0.01	–
O=C(CN1CCCC1=O)Nc1ccc(C[C@@H]2CC[C@H]([C@H](O)c3ccccc3)N2)cc1 [Example 87]	–	0.001 to 0.01	–
CC(NC(=O)c1cnccn1)C(=O)Nc1ccc(C[C@@H]2CC[C@H]([C@H](O)c3ccccc3)N2)cc1 (stereo partly drawn) [Example 269]	–	–	EC50 (Table 9, read-out: Human β^3 Functional): 0.001 to 0.01 µM
O=C(CN1CCCCC1=O)Nc1ccc(C[C@@H]2CC[C@H]([C@H](O)c3ccccc3)N2)cc1 [Example 89]	–	0.001 to 0.01	–
O=C(Cn1ccc(=O)[nH]c1=O)Nc1ccc(C[C@@H]2CC[C@H]([C@H](O)c3ccccc3)N2)cc1 [Example 63]	–	0.001 to 0.01	–
O=C(Cc1nnc(Cc2ccccc2)[nH]1)Nc1ccc(C[C@@H]2CC[C@H]([C@H](O)c3ccccc3)N2)cc1 [Example 33]	–	0.011 to 0.1	–

Structure (SMILES)	EC50 [3] [µM]	EC50 [5] [µM]	further results
O=C(Cc1nnc(-c2ccncc2)[nH]1)Nc1ccc(C[C@@H]2CC[C@H]([C@H](O)c3ccccc3)N2)cc1 [Example 25]	–	0.011 to 0.1	–
Cc1cn(CC(=O)Nc2ccc(C[C@@H]3CC[C@H]([C@H](O)c4ccccc4)N3)cc2)c(=O)[nH]c1=O [Example 52]	–	0.001 to 0.01	–
O=C(Nc1ccc(C[C@@H]2CC[C@H]([C@H](O)c3ccccc3)N2)cc1)C1CCCN1c1ccc(Cl)cc1 (stereo partly drawn) [Example 37]	–	0.101 to 1	–
O=C(Nc1ccc(C[C@@H]2CC[C@H]([C@H](O)c3ccccc3)N2)cc1)C1CCCc2ccccc21 (single isomer, unassigned) [Example 113]	0.101 to 1	–	–
O=C(Cn1ncnn1)Nc1ccc(C[C@@H]2CC[C@H]([C@H](O)c3ccccc3)N2)cc1 [Example 78]	–	0.011 to 0.1	–
Nc1nc2c(s1)CCC2C(=O)Nc1ccc(CC2CCC(C(O)c3cccc(F)c3)N2)cc1 (single isomer, unassigned) [Example 277]	–	–	EC50 [7]: < 0.001 µM
O=C(Cc1ccccc1F)Nc1ccc(C[C@@H]2CC[C@H]([C@H](O)c3ccccc3)N2)cc1 [Example 70]	–	0.011 to 0.1	–
Nc1nc2c(s1)CCCC2C(=O)Nc1ccc(CC2CCC(C(O)c3ccccc3)N2)cc1 (single isomer, unassigned) [Example 227]	–	–	EC50 [2]: 0.101 to 1 µM
Cn1ncc2c(=O)n(CC(=O)Nc3ccc(C[C@@H]4CC[C@H]([C@H](O)c5ccccc5)N4)cc3)cnc21 [Example 60]	–	0.001 to 0.01	–
Cc1cccc2c(=O)n(CC(=O)Nc3ccc(C[C@@H]4CC[C@H]([C@H](O)c5ccccc5)N4)cc3)cnc12 [Example 58]	–	0.001 to 0.01	–
Nc1nc2c(s1)CCC2C(=O)Nc1ccc(CC2CCC(C(O)c3cccc(Cl)c3)N2)cc1 (single isomer, unassigned) [Example 311]	–	–	EC50 (human β3 functional activity, shown as ranges, Table 14, read-out: Human β3 Functional): 0.001 to 0.01 µM
O=S(=O)(Nc1ccc(C[C@@H]2CC[C@H]([C@H](O)c3ccccc3)N2)cc1)c1cccc2ccncc12 [Example 236]	–	–	EC50 [6]: 1 to 3 µM
O=C(Cn1ncccc1=O)Nc1ccc(C[C@@H]2CC[C@H]([C@H](O)c3ccccc3)N2)cc1 [Example 20]	–	0.001 to 0.01	–
O=C(Cc1cnccn1)Nc1ccc(C[C@@H]2CC[C@H]([C@H](O)c3ccccc3)N2)cc1 [Example 94]	–	0.001 to 0.01	–
Cc1nc2c(s1)CCCC2C(=O)Nc1ccc(C[C@@H]2CC[C@H]([C@H](O)c3ccccc3)N2)cc1 (single isomer, unassigned) [Example 120]	0.011 to 0.1	–	–
COc1cccc(NC(=O)Nc2ccc(C[C@@H]3CC[C@H]([C@H](O)c4ccccc4)N3)cc2)c1 [Example 251, N-[4-({(2S,5R)-5-[(R)-hydroxy(phenyl)methyl]pyrrolidin-2-yl}methyl)phenyl]-N′-(3-methoxyphenyl)urea]	–	–	EC50 [1]: 0.011 to 0.1 µM
O=C(Nc1ccc(C[C@@H]2CC[C@H]([C@H](O)c3ccccc3)N2)cc1)c1ccccc1CCn1cccc1 [Example 32]	–	0.011 to 0.1	–
Cc1nc2c(CC(=O)Nc3ccc(C[C@@H]4CC[C@H]([C@H](O)c5ccccc5)N4)cc3)cccn2n1 [Example 97]	–	1 to 3	–
Nc1nc(CC(=O)Nc2ccc(C[C@@H]3CC[C@H]([C@H](O)c4cccc(Cl)c4)N3)cc2)cs1 [Example 304]	–	–	EC50 [4]: 0.001 to 0.01 µM
